Results as given in patent US4954514A, “(Di-tert-butylhydroxyphenyl)thio derivatives and antiarterioschlerosis compositions thereof” (Shionogi & Co, Ltd, priority 1989, dated 1990).

Experiments:
[1] = tested on: peroxidized lipid in a homogenate of rat brain; experiment: Suppression on production of peroxidized lipid in a homogenate of rat brain (thiobarbituric acid (TBA) method); type: biochemical, SD strain rats; settings: final concentration 0.01 mM, 37° C., 30 minutes, % of vehicle control
Protocol: Suppression on production of peroxidized lipid in a homogenate of rat brain:
SD strain rats (body weight, about 200 g) were sacrificed by cutting down their heads, and the brains were taken out. The brains were homogenated with a 4-fold amount of 0.05M phosphate-sodium chloride buffer (pH 7.4) and centrifuged at 1000×g for 10 minutes. The supernatant was kept at -80° C. for storage.
The supernatant was diluted with a 2-fold amount of the same phosphate - sodium chloride buffer as above, and 0.48 ml of the dilution was combined with 30 μl of ethanol per se (vehicle) or ethanol solution containing a test compound (final concentration: 0.01 mM), followed by incubation at 37° C. for 30 minutes. The reaction was terminated by addition of 0.01% butylhydroxytoluene (BHT) in ethanol (20 μl) and 25% metaphosphoric acid (125 μl) and subjected to elimination of proteins. The peroxidized lipid in the supernatant was measured by the thiobarbituric acid (TBA) method according to the description in Ohkawa et al.: Anal. Biochem., vol. 95, page 351 (1979). The amount of peroxidized lipid produced was compared with that in the vehicle applied group and expressed in % control.

[2] = tested on: hydrochloric acid ethanol-induced gastric ulcer; experiment: Effect against hydrochloric acid ethanol-induced gastric ulcer; type: in vivo, male JCD-SD rats; settings: rat, oral, 30 minutes before hydrochloric acid-ethanol; from lesion index; dose not given
Protocol: Effect against hydrochloric acid ethanol-induced gastric ulcer.
To male JCD-SD rats (weight: 220-275 g) which have been fasted for 24 hours was administered orally 1 ml of 150 mM hydrochloric acid - 60% ethanol. After an hour, the stomachs were excised. The ulcer size as determined by measuring the length of each lesion under stereoscopic microscope and the sum of individual lesion length is expressed as lesion index. The vehicle (1% to 10% ethanol) and the test compounds were administered orally 30 minutes before the hydrochloric acid -ethanol administration. The percent suppression was calculated from the lesion indexes of treated versus untreated animals.

SMILES	Peroxidized Lipid Produced (Expressed in % to Control) [1] [%]	Inhibitory Rate (Expressed in % to Control) [2] [%]
CC(C)(C)c1cc(SCCCC#N)cc(C(C)(C)C)c1O [Ia, 4-(3,5-Di-tert-butyl-4-hydroxy)phenylthiobutylonitrile]	4.5	94.3 ± 14.8
CC(C)(C)c1cc(SCCCCC#N)cc(C(C)(C)C)c1O [Ib, 5-(3,5-Di-tert-butyl-4-hydroxy)phenylthiopentanonitrile]	3.6	61.2 ± 18.4
CC(C)(C)c1cc(SCCCCCC#N)cc(C(C)(C)C)c1O [Ic, 6-(3,5-Di-tert-butyl-4-hydroxy)phenylthiohexanonitrile]	9.2	19.2 ± 8.4
CC(C)(C)c1cc(SCCCCCCC#N)cc(C(C)(C)C)c1O [Id, 7-(3,5-Di-tert-butyl-4-hydroxy)phenylthioheptanonitrile]	5.4	77.3 ± 16.8
CC(C)(C)c1cc(SCCc2nnn[nH]2)cc(C(C)(C)C)c1O [Ie, 5-[2-(3,5-Di-tert-butyl-4-hydroxy)phenylthioethyl]tetrazole]	8.1	37.2 ± 5.9
CC(C)(C)c1cc(SCCCc2nnn[nH]2)cc(C(C)(C)C)c1O [If, 5-[3-(3,5-Di-tert-butyl-4-hydroxy)phenylthiopropyl]tetrazole]	5.7	52.1 ± 20.0
CC(C)(C)c1cc(SCCCCc2nnn[nH]2)cc(C(C)(C)C)c1O [Ig, 5-[4-(3,5-Di-tert-butyl-4-hydroxy)phenylthiobutyl]tetrazole]	4.1	49.2 ± 13.0
CC(C)(C)c1cc(SCCCCCc2nnn[nH]2)cc(C(C)(C)C)c1O [Ih, 5-[5-(3,5-Di-tert-butyl-4-hydroxy)phenylthiopentyl]tetrazole]	9.5	52.5 ± 16.6
CC(C)(C)c1cc(SCCCCCCc2nnn[nH]2)cc(C(C)(C)C)c1O [Ii, 5-[6-(3,5-Di-tert-butyl-4-hydroxy)phenylthiohexyl]tetrazole]	4.4	46.6 ± 13.4
CC(C)(C)c1cc(SCCCCCC(N)=O)cc(C(C)(C)C)c1O [Ij, 6-(3,5-Di-tert-butyl-4-hydroxy)phenylthiohexanamide]	4.7	70.8 ± 8.5
CC(C)(Sc1cc(C(C)(C)C)c(O)c(C(C)(C)C)c1)Sc1cc(C(C)(C)C)c(O)c(C(C)(C)C)c1 [Probucol, reference compound]	58.3	75.4 ± 22.1
